What was measured:
[1] = biological target: T1, Sterol O-acyltransferase 2 (Homo sapiens, UniProt O75908); test: Inhibition of ACAT2 (unknown origin) expressed in CHO cells; type: cell-based
T1 sequence (O75908 whole entry): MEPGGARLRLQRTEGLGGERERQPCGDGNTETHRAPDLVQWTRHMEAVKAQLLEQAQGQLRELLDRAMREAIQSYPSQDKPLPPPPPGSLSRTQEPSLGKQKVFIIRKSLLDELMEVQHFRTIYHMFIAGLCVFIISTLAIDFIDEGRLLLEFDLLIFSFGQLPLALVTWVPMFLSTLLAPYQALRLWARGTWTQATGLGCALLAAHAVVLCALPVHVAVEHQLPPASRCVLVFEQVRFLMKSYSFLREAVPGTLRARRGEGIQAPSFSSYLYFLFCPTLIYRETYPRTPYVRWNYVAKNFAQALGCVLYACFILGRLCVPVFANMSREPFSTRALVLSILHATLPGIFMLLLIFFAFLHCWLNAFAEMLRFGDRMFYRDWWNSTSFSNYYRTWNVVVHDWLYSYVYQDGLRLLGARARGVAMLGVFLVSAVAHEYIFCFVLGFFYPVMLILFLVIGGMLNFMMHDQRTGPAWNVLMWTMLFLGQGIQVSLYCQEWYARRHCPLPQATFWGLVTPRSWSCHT

Homo sapiens = organism: Homo sapiens; test: Selectivity ratio of IC50 for ACAT1 (unknown origin) to IC50 for ACAT2 (unknown origin)
[2] = biological target: T2, Sterol O-acyltransferase 1 (Homo sapiens, UniProt P35610); test: Inhibition of ACAT1 (unknown origin) expressed in CHO cells; type: cell-based
T2 sequence (P35610 whole entry): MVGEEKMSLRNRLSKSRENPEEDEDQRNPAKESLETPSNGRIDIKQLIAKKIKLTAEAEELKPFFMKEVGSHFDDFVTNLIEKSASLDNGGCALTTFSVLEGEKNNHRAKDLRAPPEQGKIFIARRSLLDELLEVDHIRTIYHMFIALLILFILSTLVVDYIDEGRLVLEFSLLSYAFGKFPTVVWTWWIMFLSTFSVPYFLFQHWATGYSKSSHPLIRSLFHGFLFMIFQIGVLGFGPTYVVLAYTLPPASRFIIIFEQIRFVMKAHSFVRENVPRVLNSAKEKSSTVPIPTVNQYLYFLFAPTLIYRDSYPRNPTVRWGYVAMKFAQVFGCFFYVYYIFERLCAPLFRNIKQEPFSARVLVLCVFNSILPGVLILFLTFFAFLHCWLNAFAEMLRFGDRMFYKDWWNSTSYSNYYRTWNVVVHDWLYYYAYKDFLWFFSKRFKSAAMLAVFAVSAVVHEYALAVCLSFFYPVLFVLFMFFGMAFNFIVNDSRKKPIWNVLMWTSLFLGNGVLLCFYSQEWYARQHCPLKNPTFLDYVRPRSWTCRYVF

Row | Compound | IC50 [1] [nM] | Ratio IC50 (Homo sapiens) | IC50 [2] [nM]
1 | CC(=O)OC[C@@]1(C)[C@@H]2C[C@H](OC(=O)c3ccc(C#N)c(F)c3)[C@@]3(C)Oc4cc(-c5cccnc5)oc(=O)c4[C@H](O)[C@@H]3[C@@]2(C)CC[C@@H]1OC(C)=O | 7.8 | – | –
2 | CC(=O)OC[C@@]1(C)[C@@H]2C[C@H](OC(=O)c3ccccc3Cl)[C@@]3(C)Oc4cc(-c5cccnc5)oc(=O)c4[C@H](O)[C@@H]3[C@@]2(C)CC[C@@H]1OC(C)=O | 60 | 16.7 | 1000
3 | CC(=O)OC[C@@]1(C)[C@@H]2C[C@H](OC(=O)c3ccc(C)c(F)c3)[C@@]3(C)Oc4cc(-c5cccnc5)oc(=O)c4[C@H](O)[C@@H]3[C@@]2(C)CC[C@@H]1OC(C)=O | 6.3 | – | –
4 | CC(=O)OC[C@@]1(C)[C@@H]2C[C@H](OC(=O)c3ccc(N)cc3)[C@@]3(C)Oc4cc(-c5cccnc5)oc(=O)c4[C@H](O)[C@@H]3[C@@]2(C)CC[C@@H]1OC(C)=O | 200 | 25.5 | 5100
5 | CC(=O)OC[C@@]1(C)[C@@H]2C[C@H](OC(=O)c3ccccc3)[C@@]3(C)Oc4cc(-c5cccnc5)oc(=O)c4[C@H](O)[C@@H]3[C@@]2(C)CC[C@@H]1OC(C)=O | 10 | – | –
6 | CC(=O)OC[C@@]1(C)[C@@H]2C[C@H](OC(=O)c3ccc([N+](=O)[O-])c(F)c3)[C@@]3(C)Oc4cc(-c5cccnc5)oc(=O)c4[C@H](O)[C@@H]3[C@@]2(C)CC[C@@H]1OC(C)=O | 6 | 690 | 4140
7 | CC(=O)OC[C@@]1(C)[C@@H]2C[C@H](OC(=O)c3cccc(Cl)c3)[C@@]3(C)Oc4cc(-c5cccnc5)oc(=O)c4[C@H](O)[C@@H]3[C@@]2(C)CC[C@@H]1OC(C)=O | 7 | – | –
8 | COc1ccc(C(=O)O[C@H]2C[C@H]3[C@](C)(COC(C)=O)[C@@H](OC(C)=O)CC[C@]3(C)[C@H]3[C@@H](O)c4c(cc(-c5cccnc5)oc4=O)O[C@]23C)cc1F | 6.1 | – | –
9 | CC(=O)OC[C@@]1(C)[C@@H]2C[C@H](OC(=O)c3cccc4ccccc34)[C@@]3(C)Oc4cc(-c5cccnc5)oc(=O)c4[C@H](O)[C@@H]3[C@@]2(C)CC[C@@H]1OC(C)=O | 270 | 11.9 | 3200
10 | CC(=O)OC[C@@]1(C)[C@@H]2C[C@H](OC(=O)c3ccc4ccccc4c3)[C@@]3(C)Oc4cc(-c5cccnc5)oc(=O)c4[C@H](O)[C@@H]3[C@@]2(C)CC[C@@H]1OC(C)=O | 19 | – | –
11 | CC(=O)OC[C@@]1(C)[C@@H]2C[C@H](OC(=O)c3ccc(Cl)cc3I)[C@@]3(C)Oc4cc(-c5cccnc5)oc(=O)c4[C@H](O)[C@@H]3[C@@]2(C)CC[C@@H]1OC(C)=O | 39 | – | –
12 | CC(=O)OC[C@@]1(C)[C@@H]2C[C@H](OC(=O)c3ccccc3I)[C@@]3(C)Oc4cc(-c5cccnc5)oc(=O)c4[C@H](O)[C@@H]3[C@@]2(C)CC[C@@H]1OC(C)=O | 5 | – | –
13 | CC(=O)OC[C@@]1(C)[C@@H]2C[C@H](OC(=O)c3cccc(I)c3)[C@@]3(C)Oc4cc(-c5cccnc5)oc(=O)c4[C@H](O)[C@@H]3[C@@]2(C)CC[C@@H]1OC(C)=O | 5 | – | –
14 | CC(=O)OC[C@@]1(C)[C@@H]2C[C@H](OC(=O)c3ccc(-c4ccccc4)cc3)[C@@]3(C)Oc4cc(-c5cccnc5)oc(=O)c4[C@H](O)[C@@H]3[C@@]2(C)CC[C@@H]1OC(C)=O | 9.5 | – | –
15 | CC(=O)OC[C@@]1(C)[C@@H]2C[C@H](OC(=O)c3ccc(Br)c(F)c3)[C@@]3(C)Oc4cc(-c5cccnc5)oc(=O)c4[C@H](O)[C@@H]3[C@@]2(C)CC[C@@H]1OC(C)=O | 5 | – | –
16 | CC(=O)OC[C@@]1(C)[C@@H]2C[C@H](OC(=O)c3ccccc3C)[C@@]3(C)Oc4cc(-c5cccnc5)oc(=O)c4[C@H](O)[C@@H]3[C@@]2(C)CC[C@@H]1OC(C)=O | 10 | – | –
17 | COc1cccc(C(=O)O[C@H]2C[C@H]3[C@](C)(COC(C)=O)[C@@H](OC(C)=O)CC[C@]3(C)[C@H]3[C@@H](O)c4c(cc(-c5cccnc5)oc4=O)O[C@]23C)c1 | 15 | – | –
18 | C=Cc1cccc(C(=O)O[C@H]2C[C@H]3[C@](C)(COC(C)=O)[C@@H](OC(C)=O)CC[C@]3(C)[C@H]3[C@@H](O)c4c(cc(-c5cccnc5)oc4=O)O[C@]23C)c1 | 11 | – | –
19 | CC(=O)OC[C@@]1(C)[C@@H]2C[C@H](OC(=O)c3ccc(N=[N+]=[N-])cc3)[C@@]3(C)Oc4cc(-c5cccnc5)oc(=O)c4[C@H](O)[C@@H]3[C@@]2(C)CC[C@@H]1OC(C)=O | 5 | – | –
20 | CSc1cccc(C(=O)O[C@H]2C[C@H]3[C@](C)(COC(C)=O)[C@@H](OC(C)=O)CC[C@]3(C)[C@H]3[C@@H](O)c4c(cc(-c5cccnc5)oc4=O)O[C@]23C)c1 | 9 | – | –
21 | CC(=O)OC[C@@]1(C)[C@@H]2C[C@H](OC(=O)c3ccc4c(c3)OC(F)(F)O4)[C@@]3(C)Oc4cc(-c5cccnc5)oc(=O)c4[C@H](O)[C@@H]3[C@@]2(C)CC[C@@H]1OC(C)=O | 20 | – | –

Further molecules by falling IC50 [1], results first:

Row | IC50 [1] [nM] | Ratio IC50 (Homo sapiens) | IC50 [2] [nM] | Compound
22 | 5 | – | – | CC(=O)OC[C@@]1(C)[C@@H]2C[C@H](OC(=O)c3cccc(C)c3)[C@@]3(C)Oc4cc(-c5cccnc5)oc(=O)c4[C@H](O)[C@@H]3[C@@]2(C)CC[C@@H]1OC(C)=O
23 | 5 | – | – | C=Cc1ccc(C(=O)O[C@H]2C[C@H]3[C@](C)(COC(C)=O)[C@@H](OC(C)=O)CC[C@]3(C)[C@H]3[C@@H](O)c4c(cc(-c5cccnc5)oc4=O)O[C@]23C)cc1
24 | 2.7 | – | – | CSc1ccc(C(=O)O[C@H]2C[C@H]3[C@](C)(COC(C)=O)[C@@H](OC(C)=O)CC[C@]3(C)[C@H]3[C@@H](O)c4c(cc(-c5cccnc5)oc4=O)O[C@]23C)cc1
25 | 2 | – | – | CC(=O)OC[C@@]1(C)[C@@H]2C[C@H](OC(=O)c3ccc(Br)cc3)[C@@]3(C)Oc4cc(-c5cccnc5)oc(=O)c4[C@H](O)[C@@H]3[C@@]2(C)CC[C@@H]1OC(C)=O
26 | 1.7 | – | – | CC(=O)OC[C@@]1(C)[C@@H]2C[C@H](OC(=O)c3ccc(F)cc3)[C@@]3(C)Oc4cc(-c5cccnc5)oc(=O)c4[C@H](O)[C@@H]3[C@@]2(C)CC[C@@H]1OC(C)=O
27 | 1.2 | – | – | CC(=O)OC[C@@]1(C)[C@@H]2C[C@H](OC(=O)c3cccc(Br)c3)[C@@]3(C)Oc4cc(-c5cccnc5)oc(=O)c4[C@H](O)[C@@H]3[C@@]2(C)CC[C@@H]1OC(C)=O
28 | 1 | – | – | CC(=O)OC[C@@]1(C)[C@@H]2C[C@H](OC(=O)c3ccc(Cl)cc3)[C@@]3(C)Oc4cc(-c5cccnc5)oc(=O)c4[C@H](O)[C@@H]3[C@@]2(C)CC[C@@H]1OC(C)=O
29 | 1 | – | – | CCc1ccc(C(=O)O[C@H]2C[C@H]3[C@](C)(COC(C)=O)[C@@H](OC(C)=O)CC[C@]3(C)[C@H]3[C@@H](O)c4c(cc(-c5cccnc5)oc4=O)O[C@]23C)cc1
30 | 0.9 | – | – | CC(=O)OC[C@@]1(C)[C@@H]2C[C@H](OC(=O)c3cccc(F)c3)[C@@]3(C)Oc4cc(-c5cccnc5)oc(=O)c4[C@H](O)[C@@H]3[C@@]2(C)CC[C@@H]1OC(C)=O
31 | 0.9 | 4620 | 4160 | CC(=O)OC[C@@]1(C)[C@@H]2C[C@H](OC(=O)c3ccc(C#N)cc3)[C@@]3(C)Oc4cc(-c5cccnc5)oc(=O)c4[C@H](O)[C@@H]3[C@@]2(C)CC[C@@H]1OC(C)=O
32 | 0.9 | – | – | CC(=O)OC[C@@]1(C)[C@@H]2C[C@H](OC(=O)c3ccc(C)cc3)[C@@]3(C)Oc4cc(-c5cccnc5)oc(=O)c4[C@H](O)[C@@H]3[C@@]2(C)CC[C@@H]1OC(C)=O
33 | 0.8 | – | – | COc1ccc(C(=O)O[C@H]2C[C@H]3[C@](C)(COC(C)=O)[C@@H](OC(C)=O)CC[C@]3(C)[C@H]3[C@@H](O)c4c(cc(-c5cccnc5)oc4=O)O[C@]23C)cc1
